Patent publication US6979686B1, “Substituted pyrazoles as p38 kinase inhibitors” (Pharmacia Corporation, priority 2001, dated 2005)
Where two headings read alike, the source gives them in different places.

Legend:
[1] = tested on: TNF-α, U937 human histiocytic lymphoma cell line; assay: LPS stimulation of TNF production by U937 cells; type: cell-based; conditions: for inhibition at 1 µM: U-937, @ 1.0 uM, read-out: U937 Cell % inhib @ conc.; for U937 Cell IC50, uM or % inhib @ conc. (uM): % inhib / U937 Cell % inhib @ conc.: @ 10.0 uM; for U937 Cell % inhib @ conc. (uM): @ 1.0 uM
Procedure: Maintenance and Differentiation of the U937 Human Histiocytic Lymphoma Cell Line:
Fifty million cells in 100 ml media were induced to terminal monocytic differentiation by 24 hour incubation with 20 ng/ml phorbol 12-myristate 13-acetate (Sigma). The cells were washed by centrifugation (200×g for 5 min) and resuspended in 100 ml fresh medium. After 24-48 hours, the cells were harvested, centrifuged, and resuspended in culture medium at 2 million cells/ml.
LPS Stimulation of TNF Production by U937 Cells:
Compounds were prepared as 10 mM stock solutions in DMSO and diluted in culture medium to yield a final DMSO concentration of 0.1% in the cell assay. LPS (E coli, 100 ng/ml final concentration) was then added at a volume of 0.02 ml. After 4 hour incubation at 37° C., the amount of TNF-α released in the culture medium was quantitated by ELISA. Inhibitory potency is expressed as IC50 (μM).
In vitro whole cell assay for measuring the ability of the compounds to inhibit TNF production in human U937 cells stimulated with LPS are shown in the column identified as: • “U937 Cell IC50, uM or % inhib @ conc., (uM)”

human p38 kinase alpha = target: T1, human p38 kinase alpha (Homo sapiens, UniProt Q16539); assay: p38 kinase in vitro assay, phosphorylation of biotinylated PHAS-I with 32P-ATP; type: biochemical
T1 construct: GST (N, cleaved yes); made in house; host or cells: E. coli DH10B
T1 sequence (Q16539 whole entry): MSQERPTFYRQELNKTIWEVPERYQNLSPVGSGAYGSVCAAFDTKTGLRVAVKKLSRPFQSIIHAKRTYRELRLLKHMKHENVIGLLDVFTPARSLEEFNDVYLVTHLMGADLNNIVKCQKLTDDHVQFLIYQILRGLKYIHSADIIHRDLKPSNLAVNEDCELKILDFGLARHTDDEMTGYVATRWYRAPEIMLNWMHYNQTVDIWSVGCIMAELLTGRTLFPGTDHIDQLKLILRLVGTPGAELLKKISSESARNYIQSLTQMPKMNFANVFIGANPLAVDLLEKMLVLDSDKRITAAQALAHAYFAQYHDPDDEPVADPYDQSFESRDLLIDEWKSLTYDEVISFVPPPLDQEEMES

[2] = Homo sapiens, TNF production, LPS-stimulated U937 cells
[3] = in vitro P38-alpha kinase, read-out: P38 alpha kinase IC50
[4] = TNF production, U937 cells stimulated with LPS
[5] = TNF production, human U937 cells stimulated with LPS, read-out: U937 Cell IC50
[6] = TNF production in human U937 cells stimulated with LPS
[7] = in vitro P38-alpha kinase inhibition, read-out: P38 alpha kinase IC50
[8] = Homo sapiens, TNF production in human U937 cells stimulated with LPS
[9] = Homo sapiens, U-937, TNF production, human U937 cells stimulated with LPS, read-out: U937 Cell IC50
[10] = TNF production, LPS-stimulated U937 cells

SMILES: COc1ccc(OC)c(S(=O)(=O)N2CCC(c3[nH]nc(-c4ccc(F)cc4)c3-c3ccncc3)CC2)c1 [Example B-1444]
- inhibition at 1 µM [1, 2]: 24%
- IC50 (human p38 kinase alpha; [3]): 300 nM

SMILES: COc1ccc2[nH]c3c(c2c1)CCN(C(=O)Cn1nc(-c2ccc(F)cc2)c(-c2ccncc2)c1C)C3 [Example B-2408]
- U937 Cell IC50, uM or % inhib @ conc. (uM): % inhib [1, 4]: 10.0% @
- P38 alpha kinase IC50, uM or % inhib @ conc. (uM): % inhib (human p38 kinase alpha; @ 10.0 uM): 39.0% @

SMILES: COc1ccc(CC(=O)NCCCc2[nH]nc(-c3ccc(F)cc3)c2-c2ccncc2)cc1 [Example B-1177]
- IC50 [1, 5]: 1160 nM
- P38 alpha kinase % inhib @ conc. (uM) (human p38 kinase alpha; @ 1.0 uM): 70.0% @

SMILES: O=C(NCCc1[nH]nc(-c2ccc(F)cc2)c1-c1ccncc1)NCc1ccccc1 [Example B-0939]
- U937 Cell % inhib @ conc. (uM) [1, 4]: 14.0% @
- P38 alpha kinase % inhib @ conc. (uM) (human p38 kinase alpha; @ 1.0 uM): 78.0% @

SMILES: O=C(NCc1[nH]nc(-c2ccc(F)cc2)c1-c1ccncc1)Nc1ccccc1F [Example B-0162]
- IC50 [1, 5]: 2050 nM
- P38 alpha kinase % inhib @ conc. (human p38 kinase alpha; @ 1.0 uM): 23% @

SMILES: O=C(NCCc1[nH]nc(-c2ccc(F)cc2)c1-c1ccncc1)Nc1cccc(Cl)c1Cl [Example B-0980]
- U937 Cell % inhib @ conc. (uM) [1, 4]: 31.0% @
- P38 alpha kinase % inhib @ conc. (uM) (human p38 kinase alpha; @ 1.0 uM): 68.0% @

SMILES: O=S(=O)(NCCCc1[nH]nc(-c2ccc(F)cc2)c1-c1ccncc1)c1cccc(C(F)(F)F)c1 [Example B-1276]
- inhibition at 1 µM [1, 2]: 11%
- IC50 (human p38 kinase alpha; [3]): 62 nM

SMILES: COC(=O)c1ccccc1NC(=O)NCCc1[nH]nc(-c2ccc(F)cc2)c1-c1ccncc1 [Example B-0946]
- U937 Cell % inhib @ conc. (uM) [1, 4]: 31.0% @
- P38 alpha kinase % inhib @ conc. (uM) (human p38 kinase alpha; @ 1.0 uM): 76.0% @

SMILES: O=S(=O)(c1ccccc1)N1CCC(c2[nH]nc(-c3ccc(F)cc3)c2-c2ccncc2)CC1 [Example B-1433]
- inhibition at 1 µM [1, 2]: 21%
- IC50 (human p38 kinase alpha; [3]): 260 nM

SMILES: Cc1c(-c2ccncc2)c(-c2ccc(F)cc2)nn1CC(=O)Nc1ccccc1Sc1ccc([N+](=O)[O-])cn1 [Example B-2457]
- U937 Cell IC50, uM or % inhib @ conc. (uM): % inhib [1, 4]: 18.0% @
- P38 alpha kinase IC50, uM or % inhib @ conc. (uM): % inhib (human p38 kinase alpha; @ 10.0 uM): 90.0% @

SMILES: CC(NC(=O)c1cccc(F)c1)c1[nH]nc(-c2ccc(F)cc2)c1-c1ccncc1 (stereo not drawn) [Example B-0694]
- U937 Cell % inhib @ conc. (uM) [1, 6]: 21.0% @
- IC50 (human p38 kinase alpha; [7]): 620 nM

SMILES: COc1ccc(NC(=O)NC(C)c2[nH]nc(-c3ccc(F)cc3)c2-c2ccncc2)c(OC)c1 (stereo not drawn) [Example B-0599]
- U937 Cell % inhib @ conc. (uM) [1, 6]: 21.0% @
- IC50 (human p38 kinase alpha; [7]): 4160 nM

SMILES: COc1ccc(CC(=O)NC(C)c2[nH]nc(-c3ccc(F)cc3)c2-c2ccncc2)cc1OC (stereo not drawn) [Example B-0548]
- inhibition at 1 µM [1, 8]: 28%
- IC50 (human p38 kinase alpha; [7]): 1770 nM

SMILES: O=S(=O)(c1cccc(Br)c1)N1CCC(c2[nH]nc(-c3ccc(F)cc3)c2-c2ccncc2)CC1 [Example B-1466]
- IC50 [1, 9]: > 1000 nM
- IC50 (human p38 kinase alpha; [3]): 1690 nM

SMILES: CCN(CC)CCN(Cc1ccc(Cl)cc1)C(=O)Cn1nc(-c2ccc(F)cc2)c(-c2ccncc2)c1C [Example B-2398]
- U937 Cell IC50, uM or % inhib @ conc. (uM): % inhib [1, 4]: 10.0% @
- P38 alpha kinase IC50, uM or % inhib @ conc. (uM): % inhib (human p38 kinase alpha; @ 100.0 uM): 55% @

SMILES: Cc1c(-c2ccncc2)c(-c2ccc(F)cc2)nn1CC(=O)NC1CCc2ccccc21 (stereo not drawn) [Example B-2318]
- U937 Cell % inhib @ conc. [1, 10]: 25.0% @
- P38 alpha kinase % inhib @ conc. (human p38 kinase alpha; @ 10.0 uM): 73.0% @

SMILES: CC(NC(=O)c1ccccc1F)c1[nH]nc(-c2ccc(F)cc2)c1-c1ccncc1 (stereo not drawn) [Example B-0699]
- U937 Cell % inhib @ conc. (uM) [1, 6]: 31.0% @
- IC50 (human p38 kinase alpha; [7]): 340 nM

SMILES: CN(C(=O)NC(Cc1ccccc1)c1[nH]nc(-c2ccc(F)cc2)c1-c1ccncc1)c1ccccc1 (stereo not drawn) [Example B-0776]
- IC50 ([1]; TNF production in human U937 cells stimulated with LPS, read-out: U937 Cell IC50): > 1000 nM
- IC50 (human p38 kinase alpha; [7]): 900 nM

SMILES: Cc1c(-c2ccncc2)c(-c2ccc(F)cc2)nn1CC(=O)N1CCCCC1CCN1CCCCC1 (stereo not drawn) [Example B-2411]
- U937 Cell IC50, uM or % inhib @ conc. (uM): % inhib [1, 4]: 13.0% @
- P38 alpha kinase IC50, uM or % inhib @ conc. (uM): % inhib (human p38 kinase alpha; @ 100.0 uM): 26% @

SMILES: O=C(NCCc1[nH]nc(-c2ccc(F)cc2)c1-c1ccncc1)c1cc(Cl)cc(Cl)c1 [Example B-1126]
- IC50 [1, 9]: > 1000 nM
- IC50 (human p38 kinase alpha; [7]): 1500 nM

SMILES: COc1ccc(CC(=O)NCc2[nH]nc(-c3ccc(F)cc3)c2-c2ccncc2)cc1 [Example B-0036]
- IC50 [1, 9]: 8240 nM
- inhibition at 1 µM (human p38 kinase alpha; @ 1.0 uM, read-out: P38 alpha kinase % inhib @ conc.): 92%

SMILES: COc1cccc(-c2n[nH]c(C)c2-c2ccncc2)c1 [Example A-44]
- IC50 ([1]; Table 5, LPS-stimulated U937 cells, TNF-α, read-out: U937 Cell Assay IC50): 477 nM
- IC50 (human p38 kinase alpha; activated human p38 kinase alpha, PHAS-I substrate, 50 μM unlabeled ATP, read-out: p38 kinase IC50): < 100 nM

SMILES: COc1ccc(CC(=O)NC(Cc2ccccc2)c2[nH]nc(-c3ccc(F)cc3)c2-c2ccncc2)cc1 (stereo not drawn) [Example B-0816]
- IC50 [1, 9]: > 1000 nM
- IC50 (human p38 kinase alpha; [7]): 3460 nM

SMILES: CCN(CC)C(=O)Cn1nc(-c2ccc(F)cc2)c(-c2ccncc2)c1C [Example B-2371]
- U937 Cell % inhib @ conc. [1, 10]: 36.0% @
- P38 alpha kinase % inhib @ conc. (human p38 kinase alpha; @ 10.0 uM): 54.0% @

SMILES: COCC(=O)NC(Cc1ccccc1)c1[nH]nc(-c2ccc(F)cc2)c1-c1ccncc1 (stereo not drawn) [Example B-0810]
- IC50 [1, 9]: > 1000 nM
- IC50 (human p38 kinase alpha; [7]): 1110 nM

SMILES: Cc1c(-c2ccncc2)c(-c2ccc(F)cc2)nn1CC(=O)N1CCCCC1CC1CCCN1C (mixture of isomers) [Example B-2388]
- U937 Cell IC50, uM or % inhib @ conc. (uM): % inhib [1, 4]: 24.0% @
- P38 alpha kinase IC50, uM or % inhib @ conc. (uM): % inhib (human p38 kinase alpha; @ 10.0 uM): 42.0% @

SMILES: COc1ccccc1C(=O)NC(Cc1ccccc1)c1[nH]nc(-c2ccc(F)cc2)c1-c1ccncc1 (stereo not drawn) [Example B-0843]
- IC50 [1, 9]: > 1000 nM
- IC50 (human p38 kinase alpha; [7]): 610 nM

SMILES: COc1ccc(Br)cc1S(=O)(=O)N1CCC(c2[nH]nc(-c3ccc(F)cc3)c2-c2ccncc2)CC1 [Example B-1446]
- inhibition at 1 µM [1, 2]: 36%
- IC50 (human p38 kinase alpha; [3]): 770 nM

SMILES: C=CCN(C(=O)Cn1nc(-c2ccc(F)cc2)c(-c2ccncc2)c1C)C1CCCCC1 [Example B-2373]
- U937 Cell % inhib @ conc. [1, 10]: 6% @
- P38 alpha kinase % inhib @ conc. (human p38 kinase alpha; @ 100.0 uM): 50.0% @

SMILES: O=C(NCCc1[nH]nc(-c2ccc(F)cc2)c1-c1ccncc1)Nc1ccc(Cc2ccccc2)cc1 [Example B-0943]
- U937 Cell % inhib @ conc. (uM) [1, 4]: 24.0% @
- P38 alpha kinase % inhib @ conc. (uM) (human p38 kinase alpha; @ 10.0 uM): 63.0% @

SMILES: COc1cccc(CC(=O)NC(C)c2[nH]nc(-c3ccc(F)cc3)c2-c2ccncc2)c1 (stereo not drawn) [Example B-0550]
- inhibition at 1 µM [1, 8]: 14%
- IC50 (human p38 kinase alpha; [7]): 2410 nM

SMILES: Cc1c(-c2ccncc2)c(-c2ccc(F)cc2)nn1CC(=O)NCCc1cccs1 [Example B-2279]
- U937 Cell % inhib @ conc. [1, 10]: 36.0% @
- IC50 (human p38 kinase alpha; [3]): 320 nM

SMILES: O=C(NCCc1[nH]nc(-c2ccc(F)cc2)c1-c1ccncc1)c1ccc(Cl)cc1 [Example B-1121]
- inhibition at 1 µM ([1]; Homo sapiens, TNF production, U937 cells stimulated with LPS): 29%
- IC50 (human p38 kinase alpha; [7]): 3580 nM

SMILES: CN(C)CCCNC(=O)NCCCc1[nH]nc(-c2ccc(F)cc2)c1-c1ccncc1 [Example B-1303]
- IC50 [1, 9]: > 1000 nM
- IC50 (human p38 kinase alpha; [3]): 80 nM

SMILES: CC(NC(=O)c1ccc(F)c(F)c1F)c1[nH]nc(-c2ccc(F)cc2)c1-c1ccncc1 (stereo not drawn) [Example B-0546]
- inhibition at 1 µM [1, 8]: 18%
- IC50 (human p38 kinase alpha; [7]): 1040 nM

SMILES: CNC(=O)CCC(NS(=O)(=O)Cc1ccccc1)c1[nH]nc(-c2ccc(F)cc2)c1-c1ccncc1 (stereo not drawn) [Example B-0876]
- IC50 [1, 9]: > 1000 nM
- IC50 (human p38 kinase alpha; [7]): 890 nM
